# Laboratory results taken from patent US7435837B2, “Dihydrobenzofuranyl alkanamine derivatives and methods for using same” (Wyeth, priority 2003, dated 2008).
# Target: T1, human 5-hydroxytryptamine-2C (h5-HT2C) receptor (Homo sapiens, UniProt P28335)
# T1 construct: expressed in transfected cells; host or cells: CHO (Chinese Hamster Ovary) cells; membranes
# T1 sequence (P28335 33-458): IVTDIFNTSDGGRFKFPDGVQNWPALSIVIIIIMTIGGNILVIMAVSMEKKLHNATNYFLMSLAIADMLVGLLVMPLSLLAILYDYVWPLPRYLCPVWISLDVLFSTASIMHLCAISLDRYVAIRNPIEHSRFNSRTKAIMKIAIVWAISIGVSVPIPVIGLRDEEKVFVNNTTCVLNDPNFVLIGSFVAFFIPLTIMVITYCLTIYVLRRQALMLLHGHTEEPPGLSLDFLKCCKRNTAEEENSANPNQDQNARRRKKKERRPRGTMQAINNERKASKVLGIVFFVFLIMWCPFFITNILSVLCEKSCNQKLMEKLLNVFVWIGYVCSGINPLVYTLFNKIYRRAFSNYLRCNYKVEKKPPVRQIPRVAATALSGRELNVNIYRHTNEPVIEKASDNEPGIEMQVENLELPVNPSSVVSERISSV
# Experiment: [125I]DOI binding to membranes of CHO cells expressing the human 5-HT2C receptor
# Conditions: [125I]DOI radioligand, CHO cell membranes, room temperature 60 min; read-out: 5-HT2C Affinity Ki
row,Ki,Compound
1,0.4 nM,"CNCC1Cc2ccc(Cl)c(-c3ccccc3Cl)c2O1 (racemic) [Example 404, (±)-{[6-chloro-7-(2-chlorophenyl)-2,3-dihydro-1-benzofuran-2-yl]methyl}methylamine]"
2,60 nM,"CNCC1Cc2cc(OC)cc(-c3cc(Cl)ccc3OC)c2O1 (racemic) [Example 502, (±)-{[7-(5-chloro-2-methoxyphenyl)-5-methoxy-2,3-dihydro-1-benzofuran-2-yl]methyl}methylamine]"
3,78 nM,"CNCC1Cc2cc(OC)cc(-c3ccc(F)c(Cl)c3)c2O1 (racemic) [Example 503, (±)-{[7-(3-chloro-4-fluorophenyl)-5-methoxy-2,3-dihydro-1-benzofuran-2-yl]methyl}methylamine]"
4,371 nM,"CNCC1Cc2cc(-c3ccccc3)cc(-c3ccccc3Cl)c2O1 (racemic) [Example 505, (±)-{[7-(2-chlorophenyl)-5-phenyl-2,3-dihydro-1-benzofuran-2-yl]methyl}methylamine]"
5,1600 nM,"CNCC1Cc2cc(-c3ccccc3)cc(-c3cccc(Cl)c3)c2O1 (racemic) [Example 506, (±)-{[7-(3-chlorophenyl)-5-phenyl-2,3-dihydro-1-benzofuran-2-yl]methyl}methylamine]"
6,2730 nM,"CNCC1Cc2cc(-c3ccccc3)cc(-c3ccc(Cl)cc3)c2O1 (racemic) [Example 507, (±)-{[7-(4-chlorophenyl)-5-phenyl-2,3-dihydro-1-benzofuran-2-yl]methyl}methylamine]"
7,1800 nM,"CNCC1Cc2cc(-c3ccccc3)cc(-c3ccccc3F)c2O1 (racemic) [Example 508, (±)-{[7-(2-fluorophenyl)-5-phenyl-2,3-dihydro-1-benzofuran-2-yl]methyl}methylamine]"
8,248 nM,"CNCC1Cc2cc(-c3ccccc3)cc(-c3ccccc3C)c2O1 (racemic) [Example 511, (±)-{[7-(2-methylphenyl)-5-phenyl-2,3-dihydro-1-benzofuran-2-yl]methyl}methylamine]"
9,810 nM,"CNCC1Cc2cc(-c3ccccc3)cc(-c3cccc(C)c3)c2O1 (racemic) [Example 512, (±)-{[7-(3-methylphenyl)-5-phenyl-2,3-dihydro-1-benzofuran-2-yl]methyl}methylamine]"
10,1150 nM,"CNCC1Cc2cc(-c3ccccc3)cc(-c3ccc(C)cc3)c2O1 (racemic) [Example 513, (±)-{[7-(4-methylphenyl)-5-phenyl-2,3-dihydro-1-benzofuran-2-yl]methyl}methylamine]"
11,242 nM,"CNCC1Cc2cc(-c3ccccc3)cc(-c3ccccc3OC)c2O1 (racemic) [Example 514, (±)-{[7-(2-methoxyphenyl)-5-phenyl-2,3-dihydro-1-benzofuran-2-yl]methyl}methylamine]"
12,965 nM,"CNCC1Cc2cc(-c3ccccc3)cc(-c3cccc(OC)c3)c2O1 (racemic) [Example 515, (±)-{[7-(3-methoxyphenyl)-5-phenyl-2,3-dihydro-1-benzofuran-2-yl]methyl}methylamine]"
13,1580 nM,"CNCC1Cc2cc(-c3ccccc3)cc(-c3ccc(OC)cc3)c2O1 (racemic) [Example 516, (±)-{[7-(4-methoxyphenyl)-5-phenyl-2,3-dihydro-1-benzofuran-2-yl]methyl}methylamine]"
14,2140 nM,"CNCC1Cc2cc(-c3ccccc3)cc(-c3ccc(F)cc3F)c2O1 (racemic) [Example 517, (±)-{[7-(2,4-difluorophenyl)-5-phenyl-2,3-dihydro-1-benzofuran-2-yl]methyl}methylamine]"
15,488 nM,"CNCC1Cc2cc(C(F)(F)F)cc(-c3cccc(C)c3)c2O1 (racemic) [Example 519, (±)-N-methyl-1-[7-(3-methylphenyl)-5-(trifluoromethyl)-2,3-dihydro-1-benzofuran-2-yl]methanamine]"
16,372 nM,"CNCC1Cc2cc(C(F)(F)F)cc(-c3cccc(F)c3)c2O1 (racemic) [Example 520, (±)-N-methyl-1-[7-(3-fluorophenyl)-5-(trifluoromethyl)-2,3-dihydro-1-benzofuran-2-yl]methanamine]"
17,246 nM,"CNCC1Cc2cc(C(F)(F)F)cc(-c3cccc(F)c3F)c2O1 (racemic) [Example 521, (±)-N-methyl-1-[7-(2,3-difluorophenyl)-5-(trifluoromethyl)-2,3-dihydro-1-benzofuran-2-yl]methanamine]"
18,474 nM,"CNCC1Cc2cc(C(F)(F)F)cc(-c3ccc(F)c(F)c3)c2O1 (racemic) [Example 522, (±)-N-methyl-1-[7-(3,4-difluorophenyl)-5-(trifluoromethyl)-2,3-dihydro-1-benzofuran-2-yl]methanamine]"
19,61 nM,"CNCC1Cc2cc(C(F)(F)F)cc(-c3cc(F)ccc3F)c2O1 (racemic) [Example 523, (±)-N-methyl-1-[7-(2,5-difluorophenyl)-5-(trifluoromethyl)-2,3-dihydro-1-benzofuran-2-yl]methanamine]"

row,Ki,Compound
1,136 nM,"CNCC1Cc2cc(C(F)(F)F)cc(-c3cccc(Cl)c3Cl)c2O1 (racemic) [Example 524, (±)-N-methyl-1-[7-(2,3-dichlorophenyl)-5-(trifluoromethyl)-2,3-dihydro-1-benzofuran-2-yl]methanamine]"
2,559 nM,"CNCC1Cc2cc(C(F)(F)F)cc(-c3ccc(F)c(Cl)c3)c2O1 (racemic) [Example 525, (±)-{[7-(3-chloro-4-fluorophenyl)-5-(trifluoromethyl)-2,3-dihydro-1-benzofuran-2-yl]methyl}methylamine]"
3,4740 nM,"CNCC1Cc2cc(C(F)(F)F)cc(-c3cc(C(F)(F)F)cc(C(F)(F)F)c3)c2O1 (racemic) [Example 527, (±)-{[7-[3,5-bis(trifluoromethyl)phenyl]-5-(trifluoromethyl)-2,3-dihydro-1-benzofuran-2-yl]methyl}methylamine]"
4,1090 nM,"CNCC1Cc2cc(-c3ccccc3C)cc(F)c2O1 (racemic) [Example 528, (±)-{[7-fluoro-5-(2-methylphenyl)-2,3-dihydro-1-benzofuran-2-yl]methyl}methylamine]"
5,616 nM,"CNCC1Cc2cc(-c3ccccc3Cl)cc(F)c2O1 (racemic) [Example 529, (±)-{[7-fluoro-5-(2-chlorophenyl)-2,3-dihydro-1-benzofuran-2-yl]methyl}methylamine]"
6,915 nM,"CNCC1Cc2cc(-c3ccccc3F)cc(F)c2O1 (racemic) [Example 530, (±)-{[7-fluoro-5-(2-fluorophenyl)-2,3-dihydro-1-benzofuran-2-yl]methyl}methylamine]"
7,409 nM,"CNCC1Cc2cc(-c3ccccc3C(F)(F)F)cc(F)c2O1 (racemic) [Example 531, (±)-{7-fluoro-5-[2-(trifluoromethyl)phenyl]-2,3-dihydro-1-benzofuran-2-yl}methyl)methylamine]"
8,3350 nM,"CNCC1Cc2cc(-c3ccccc3OC)cc(F)c2O1 (racemic) [Example 532, (±)-{7-fluoro-5-[2-methoxyphenyl]-2,3-dihydro-1-benzofuran-2-yl}methyl)methylamine]"
9,1520 nM,"CNCC1Cc2cc(-c3cccc(C)c3)cc(F)c2O1 (racemic) [Example 533, (±)-{7-fluoro-5-[3-methylphenyl]-2,3-dihydro-1-benzofuran-2-yl}methyl)methylamine]"
10,1050 nM,"CNCC1Cc2cc(-c3cccc(Cl)c3)cc(F)c2O1 (racemic) [Example 534, (±)-{7-fluoro-5-[3-chlorophenyl]-2,3-dihydro-1-benzofuran-2-yl}methyl)methylamine]"
11,1090 nM,"CNCC1Cc2cc(-c3cccc(F)c3)cc(F)c2O1 (racemic) [Example 535, (±)-{[7-fluoro-5-(3-fluorophenyl)-2,3-dihydro-1-benzofuran-2-yl]methyl}methylamine]"
12,1120 nM,"CNCC1Cc2cc(-c3cccc(C(F)(F)F)c3)cc(F)c2O1 (racemic) [Example 536, (±)-{7-fluoro-5-[3-(trifluoromethyl)phenyl]-2,3-dihydro-1-benzofuran-2-yl}methyl)methylamine]"
13,1690 nM,"CNCC1Cc2cc(-c3cccc(OC)c3)cc(F)c2O1 (racemic) [Example 537, (±)-{7-fluoro-5-[3-methoxyphenyl]-2,3-dihydro-1-benzofuran-2-yl}methyl)methylamine]"
14,380 nM,"CNCC1Cc2cc(-c3ccc(C)cc3)cc(F)c2O1 (racemic) [Example 538, (±)-{7-fluoro-5-[4-methylphenyl]-2,3-dihydro-1-benzofuran-2-yl}methyl)methylamine]"
15,209 nM,"CNCC1Cc2cc(-c3ccc(Cl)cc3)cc(F)c2O1 (racemic) [Example 539, (±)-{7-fluoro-5-[4-chlorophenyl]-2,3-dihydro-1-benzofuran-2-yl}methyl)methylamine]"
16,486 nM,"CNCC1Cc2cc(-c3ccc(F)cc3)cc(F)c2O1 (racemic) [Example 540, (±)-{[7-fluoro-5-(4-fluorophenyl)-2,3-dihydro-1-benzofuran-2-yl]methyl}methylamine]"
17,316 nM,"CNCC1Cc2cc(-c3ccc(C(F)(F)F)cc3)cc(F)c2O1 (racemic) [Example 541, (±)-{7-fluoro-5-[4-(trifluoromethyl)phenyl]-2,3-dihydro-1-benzofuran-2-yl}methyl)methylamine]"
18,372 nM,"CNCC1Cc2cc(-c3ccc(OC)cc3)cc(F)c2O1 (racemic) [Example 542, (±)-{7-fluoro-5-[4-methoxyphenyl]-2,3-dihydro-1-benzofuran-2-yl}methyl)methylamine]"
